Reference: US20240245670A1, “DOSING REGIMEN AND PHARMACEUTICAL COMBINATION COMPRISING 3-(1-OXOISOINDOLIN-2-YL)PIPERIDINE-2,6-DIONE DERIVATIVES” (Novartis AG, priority 2018, published 2024)
Entries after “also recorded” stand apart in the source; their conditions may differ.

Tests used:
[1] = In vivo non-clinical PK / high dose PK; conditions: mouse; between 3 mg/kg and 100 mg/kg
Procedure: The in vivo non-clinical PK profile of I-57 was investigated in mouse, rat, dog and cynomolgus monkey using I-57 free base. […] After p.o. administration, the absorption of I-57 was rapid with peak blood concentration (Tmax) occurring between 1 and 4 hours. […] In high dose PK and toxicology studies with I-57 the exposures in mouse, rat and monkey increased with dose.
The binding to plasma protein of I-57 in vitro was moderate in all species, with an observed difference between rodents (73% in mouse, 76% in rat) and non-rodents (52% in dog and monkey, 54% in human). Blood-to-plasma ratios were in the range of 0.7-1.8 (human 1.1-1.3). […] Based on results with non-radiolabeled I-57 in the dog, a significant amount of unchanged I-57 was renally eliminated (˜20% of dose).

[2] = ECG (QTc interval) in single dose and 4-week GLP repeat dose study; format: in vivo, monkey
Procedure: The risk of possible QTc interval prolongation at the starting dose is therefore considered low. QT prolongation may become clinically significant during escalation but are not anticipated to be dose limiting until doses at or above 640 mg. Monitoring and other measures to mitigate potential risk of arrhythmia is addressed in Example 3 below.

[3] = Preclinical safety observations; format: in vivo
Source text: The inclusion/exclusion criteria, dose modification guidelines and safety assessments in this FIH trial account for both the disease indications and preclinical safety profile of I-57 and PDR001. Of note are the provisions put in place for the risk of autoimmune events for both PDR001 and potentially I-57.

[4] = tested on: isolated primary human T cells; assay: In vitro T cell dysfunction/exhaustion assay by sequential TCR stimulation (FIG. 2D); format: cell-based; conditions: Teff cells; 2.5 nM, 25 nM and 2.5 μM
Source text: (§1) FIG. 2C is a bar graph showing the suppressive potency of Treg cells expanded in the presence of Compound I-57.
(§2) Although the specific transcriptional targets of IKZF2 remain to be defined, IKZF2 binds to and represses transcription from the IL-2 promoter region (Baine 2013). […] Finally, an in vitro assay recapitulating hallmarks of T cell dysfunction/exhaustion, by sequential TCR stimulation of isolated primary human T cells, was used to test the hypothesis that […] would rescue the exhausted phenotype and enhance Teff cell activity. […] In addition to IKZF1, other known cereblon substrates including translation termination factor G1 to S phase transition 1 (GSPT1) are not degraded by I-57 (FIG. 1).

IKZF2 = IKZF2 (Homo sapiens, UniProt Q96SW2+Q9UKS7); assay: Degradation of prolabel-tagged target proteins in HEK293T cells (FIG. 1); format: cell-based; design: prolabel; expressed in transfected cells; host or cells: HEK293T; conditions: HEK293T cells overexpressing prolabel-tagged target proteins; various concentrations
IKZF2, sequence (Q9UKS7 whole entry): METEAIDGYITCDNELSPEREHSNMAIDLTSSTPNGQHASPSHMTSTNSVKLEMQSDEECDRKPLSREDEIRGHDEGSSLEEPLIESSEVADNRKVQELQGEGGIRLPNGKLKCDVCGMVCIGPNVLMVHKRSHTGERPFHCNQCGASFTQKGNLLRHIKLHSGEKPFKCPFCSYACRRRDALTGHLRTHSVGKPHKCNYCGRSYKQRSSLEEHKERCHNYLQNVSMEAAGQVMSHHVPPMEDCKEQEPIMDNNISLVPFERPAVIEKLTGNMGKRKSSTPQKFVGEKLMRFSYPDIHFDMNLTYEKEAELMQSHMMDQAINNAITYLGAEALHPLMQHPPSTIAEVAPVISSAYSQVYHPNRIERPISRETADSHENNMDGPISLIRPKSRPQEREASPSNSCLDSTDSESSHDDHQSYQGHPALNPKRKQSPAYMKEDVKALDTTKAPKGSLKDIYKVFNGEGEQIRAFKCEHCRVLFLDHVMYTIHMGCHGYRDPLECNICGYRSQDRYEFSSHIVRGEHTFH
IKZF2, sequence (Q96SW2 whole entry): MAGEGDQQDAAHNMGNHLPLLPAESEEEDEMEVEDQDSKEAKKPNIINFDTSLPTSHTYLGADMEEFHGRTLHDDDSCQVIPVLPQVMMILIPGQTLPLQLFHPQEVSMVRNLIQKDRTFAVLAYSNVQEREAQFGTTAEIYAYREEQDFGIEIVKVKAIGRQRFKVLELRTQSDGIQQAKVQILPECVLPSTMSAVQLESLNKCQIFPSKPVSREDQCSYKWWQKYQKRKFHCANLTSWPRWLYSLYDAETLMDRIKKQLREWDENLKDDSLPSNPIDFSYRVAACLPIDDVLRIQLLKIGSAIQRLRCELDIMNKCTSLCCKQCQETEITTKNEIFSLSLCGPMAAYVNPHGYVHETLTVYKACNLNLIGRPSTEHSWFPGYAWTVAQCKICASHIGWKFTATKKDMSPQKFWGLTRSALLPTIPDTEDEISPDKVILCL
IKZF2, sequence (Q16531 whole entry partner): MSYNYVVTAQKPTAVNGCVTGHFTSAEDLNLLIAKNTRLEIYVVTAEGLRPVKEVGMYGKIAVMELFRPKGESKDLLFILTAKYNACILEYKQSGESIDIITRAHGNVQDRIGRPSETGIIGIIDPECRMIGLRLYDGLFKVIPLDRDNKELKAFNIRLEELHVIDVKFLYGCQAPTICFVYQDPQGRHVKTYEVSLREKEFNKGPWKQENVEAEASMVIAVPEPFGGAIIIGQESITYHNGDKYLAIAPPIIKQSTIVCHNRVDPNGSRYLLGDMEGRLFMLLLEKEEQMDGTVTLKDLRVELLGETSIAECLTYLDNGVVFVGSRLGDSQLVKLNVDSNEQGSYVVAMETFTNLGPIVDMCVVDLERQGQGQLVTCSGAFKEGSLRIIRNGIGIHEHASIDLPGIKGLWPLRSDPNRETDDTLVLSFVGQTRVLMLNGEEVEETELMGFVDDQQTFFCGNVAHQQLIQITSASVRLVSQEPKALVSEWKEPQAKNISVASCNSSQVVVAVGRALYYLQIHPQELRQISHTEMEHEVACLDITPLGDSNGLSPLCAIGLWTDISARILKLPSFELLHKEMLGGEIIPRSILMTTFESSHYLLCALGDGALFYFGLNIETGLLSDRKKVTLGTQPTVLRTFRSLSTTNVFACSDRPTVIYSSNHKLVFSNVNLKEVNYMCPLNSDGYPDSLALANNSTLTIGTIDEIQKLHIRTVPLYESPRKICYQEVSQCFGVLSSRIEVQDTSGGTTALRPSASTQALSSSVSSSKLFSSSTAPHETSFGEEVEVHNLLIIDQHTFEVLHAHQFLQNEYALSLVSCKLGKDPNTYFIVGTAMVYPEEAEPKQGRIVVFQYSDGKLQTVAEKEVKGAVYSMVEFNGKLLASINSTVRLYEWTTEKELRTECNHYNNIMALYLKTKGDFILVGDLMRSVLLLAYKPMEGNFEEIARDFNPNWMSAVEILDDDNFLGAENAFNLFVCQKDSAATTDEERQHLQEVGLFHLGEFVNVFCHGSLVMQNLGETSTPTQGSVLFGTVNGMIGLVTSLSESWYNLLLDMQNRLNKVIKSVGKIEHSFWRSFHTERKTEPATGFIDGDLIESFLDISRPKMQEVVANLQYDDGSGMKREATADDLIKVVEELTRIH
Source text: FIG. 1. is a graph showing the selectivity of Compound I-57 for the degradation of IKZF2 over the other IKAROS family members, IKZF1, IKZF4, and GSPT1 at various concentrations in HEK293T cells overexpressing prolabel-tagged target proteins.
as §2

rat IKZF2 = molecular target: T1, rat IKZF2 (Rattus norvegicus, UniProt A0A0G2JVA9); assay: IKZF2 degradation, species relevance (rat)
T1 construct: assessed in primary PBMCs obtained from rabbit, dog, pig, cynomolgus monkey, and human, and in primary splenocytes of mouse and rat; endogenous in cells; host or cells: primary rat splenocytes
T1 sequence (A0A0G2JVA9 1-467): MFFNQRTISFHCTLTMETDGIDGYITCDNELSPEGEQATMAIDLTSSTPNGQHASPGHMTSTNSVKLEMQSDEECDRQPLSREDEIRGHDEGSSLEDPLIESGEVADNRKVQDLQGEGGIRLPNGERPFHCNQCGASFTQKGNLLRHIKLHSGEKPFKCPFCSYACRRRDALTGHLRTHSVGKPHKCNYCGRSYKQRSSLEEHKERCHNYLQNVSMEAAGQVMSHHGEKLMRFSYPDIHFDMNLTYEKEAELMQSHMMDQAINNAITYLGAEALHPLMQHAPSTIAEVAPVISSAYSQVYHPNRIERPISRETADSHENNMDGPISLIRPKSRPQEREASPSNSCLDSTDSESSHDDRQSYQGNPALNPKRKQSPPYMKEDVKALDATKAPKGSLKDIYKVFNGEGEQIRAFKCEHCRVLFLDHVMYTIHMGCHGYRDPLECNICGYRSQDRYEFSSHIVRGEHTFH
T1 sequence (Q56AP7 whole entry partner): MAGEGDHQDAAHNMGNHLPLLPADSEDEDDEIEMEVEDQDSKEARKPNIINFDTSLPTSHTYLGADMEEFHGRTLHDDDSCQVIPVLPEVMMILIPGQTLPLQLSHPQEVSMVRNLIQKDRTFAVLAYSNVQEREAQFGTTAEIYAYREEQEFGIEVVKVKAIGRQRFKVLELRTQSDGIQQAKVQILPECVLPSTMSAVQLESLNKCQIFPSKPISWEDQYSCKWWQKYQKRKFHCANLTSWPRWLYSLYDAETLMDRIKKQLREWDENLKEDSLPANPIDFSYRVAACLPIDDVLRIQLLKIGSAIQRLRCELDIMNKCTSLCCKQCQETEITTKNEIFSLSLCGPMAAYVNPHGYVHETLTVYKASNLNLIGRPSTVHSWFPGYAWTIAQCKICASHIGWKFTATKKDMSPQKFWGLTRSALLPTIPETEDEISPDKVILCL
Procedure: The starting dose of I-57 selected for this study is supported by 4-week GLP toxicology studies performed in cynomolgus monkeys. […] GLP toxicity studies identified 30 mg/kg as the HNSTD in monkey and supported a starting dose up to 100 mg QD in human (BSA scaled HED and using a safety factor of 6). The selected dose of 20 mg is anticipated to result in a significant but sub-maximal IKZF2 degradation in human PBMCs and TILs (50-90%), based on PK/PD modeling of I-57 exposure and IKZF2 degradation in cynomolgus PBMCs. More IKZF2 degradation may be required to change downstream biology. Therefore, 20 mg is considered safe. Escalation from this starting dose will facilitate the determination of the minimal required dose which provides optimal IKZF2 degradation to impact downstream biological activity.

[5] = molecular target: T2, IKZF2 expression in human CD4+FOXP3+ regulatory T cells (Homo sapiens, UniProt Q96SW2+Q9UKS7); assay: PD in MDA-MB231 xenograft hPBMC AdT model: IKZF2 in Tregs by flow cytometry (FIG. 7); format: in vivo
T2 construct: endogenous in cells; host or cells: adoptively transferred human PBMCs (Tregs, tumor-infiltrating lymphocytes) in NSG mice
T2 sequence (Q9UKS7 whole entry): as the sequence (Q9UKS7 whole entry) above
T2 sequence (Q96SW2 whole entry): as the sequence (Q96SW2 whole entry) above
T2 sequence (Q16531 whole entry partner): as the sequence (Q16531 whole entry partner) above
Procedure: FIG. 6 is a pictorial representation of the multi-dose PK/PD study design in the human PBMC adoptive transfer mouse model harboring MDA-MB231 xenografts. Fourteen consecutive daily doses of Compound I-57 was administered at 0.3 mg/kg, 1 mg/kg, 3 mg/kg or 30 mg/kg.
FIG. 7 is a graph showing the change in the IKZF2 expression in human CD4+FOXP3+ regulatory T cells isolated from MDA-MB231 tumor xenografts (Tumor) or blood (Periphery) following 14 daily oral doses of 0.3, 1, 3 and 30 mg/kg Compound I-57 administered to the hPBMC AdT model.
The PK/PD relationship of I-57 was examined in the hPBMC AdT model system. Human PBMCs were adoptively transferred into female NSG mice harboring established MDA-MB231 xenografts (FIG. 6). This model was selected based on the observation that IKZF2 positive Tregs (CD4+FOXP3+) were readily identifiable in peripheral blood and infiltrated in the tumor xenografts.
The impact of I-57 on IKZF2 protein expression in human Tregs in the periphery and infiltrated in MDA-MB231 xenografts was assessed via flow cytometry at multiple time points after the last I-57 dose. […] Maximum effects were generally observed 4-16 h post dose. At a given dose level, the magnitude and duration of IKZF2 reduction in Tregs was generally consistent across tissues (tumor, spleen and blood).
Based on the data from this hPBMC AdT mouse model, unbound I-57 (73% percent plasma binding in the mouse) exposures (AUCinf) of 7, 30, 157 and 3474 ng*h/mL are required to achieve the reduction of IKZF2 positivity (via flow cytometry) in tumor Tregs by 31, 43, 56, and 75%, respectively. The relationship between the magnitude and duration of I-57-mediated IKZF2 degradation and subsequent modulation of therapeutically relevant downstream biology is not yet well understood.

primary human Tregs = assay: Suppressive potency of Treg cells expanded in vitro in the presence of compound (FIG. 2C); format: cell-based
Source text: as §1, §2

## O=C1CCC(N2Cc3cc(C4CCN(Cc5ccccc5)CC4)ccc3C2=O)C(=O)N1 (stereo not shown) [Compound I-57, 3-(5-(1-benzylpiperidin-4-yl)-1-oxoisoindolin-2-yl)piperidine-2,6-dione]
[1]
  increase in AUC with dose: roughly dose proportional
[2]; monkeys at 3 mg/kg
  free Cmax in monkeys relative to free Cmax predicted at the clinical starting dose of 20 mg: 40 times
[2]; monkeys, 3 mg/kg
  QT effects: no QT effects
[2]; monkeys, coinciding with Tmax
  time of highest magnitude of QTc effect: 0.5 to 5.5 h
[3]
  preclinical observation (ECG): QTc prolongation
  preclinical observation (urine): hematuria and proteinuria
[4]
  IFNγ production by IKZF2 positive cells: concomitant increase
IKZF2
  degradation of IKZF2: potent and specific degrader; also recorded: potent and specific degradation
Rat IKZF2
  degradation of rat IKZF2: not rat
[5]; post dose (after last dose)
  time of maximum effects: 4 to 16 h
[5]; tumor and peripheral blood, 14 daily oral doses of 0.3, 1, 3 and 30 mg/kg
  IKZF2 degradation (reduction of percentage of IKZF2 positive Tregs): robust dose and exposure-dependent IKZF2 degradation
[5]; unbound AUCinf 7 ng*h/mL
  reduction of IKZF2 positivity in tumor Tregs (flow cytometry): 31%
[5]; unbound AUCinf 30 ng*h/mL
  reduction of IKZF2 positivity in tumor Tregs (flow cytometry): 43%
[5]; unbound AUCinf 157 ng*h/mL
  reduction of IKZF2 positivity in tumor Tregs (flow cytometry): 56%
[5]; unbound AUCinf 3474 ng*h/mL
  reduction of IKZF2 positivity in tumor Tregs (flow cytometry): 75%
Primary human Tregs
  proportion of IKZF2-expressing cells: remained unchanged
